Experimental data published in patent US11981658B2, “Substituted aminopyridine compounds as EGFR inhibitors” (YUHAN CORPORATION, priority 2021, dated 2024).
Read-outs that look alike come from different tables or passages of the source.

Legend:
[1] = target: EGFR Del19/T790M/C797S (Homo sapiens, UniProt P00533, C797S/DEL746-750/T790M); test: Biochemical EGFR kinase inhibition assay (Lance Ultra TR-FRET), triple mutant del19/T790M/C797S
Procedure, shortened: (§1)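 Step 1: compound in kinase buffer, 0.003–10 μM. Step 2: kinase reaction 1 h at room temperature. Step 4: TR-FRET read at 615/665 nm; IC50 calculated.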

[2] = target: EGFR L858R/T790M/C797S (Homo sapiens, UniProt P00533, C797S/L858R/T790M); test: Biochemical EGFR kinase inhibition assay (Lance Ultra TR-FRET), triple mutant L858R/T790M/C797S
Procedure, shortened: as §1

[3] = target: EGFR Del19/C797S (Homo sapiens, UniProt P00533, C797S/DEL746-750); test: Biochemical EGFR kinase inhibition assay (Lance Ultra TR-FRET), double mutant del19/C797S
Procedure, shortened: as §1

[4] = target: EGFR L858R/C797S (Homo sapiens, UniProt P00533, C797S/L858R); test: Biochemical EGFR kinase inhibition assay (Lance Ultra TR-FRET), double mutant L858R/C797S
Procedure, shortened: as §1

[5] = target: EGFR wildtype (WT) (Homo sapiens, UniProt P00533); test: Biochemical EGFR kinase inhibition assay (Lance Ultra TR-FRET), wildtype
Procedure, shortened: as §1

[6] = IC50 Del19/T790M/C797S (nM), 100 μM ATP
[7] = Km ATP, read-out: IC50 Del19/T790M/C797S (nM), Km ATP
[8] = IC50 L858R/T790M/C797S (nM), 100 μM ATP
[9] = Km ATP, read-out: IC50 L858R/T790M/C797S (nM), Km ATP
[10] = IC50 Del19/C797S (nM), 100 μM ATP
[11] = IC50 L858R/C797S (nM), 100 μM ATP
[12] = Km ATP, read-out: IC50 Del19/C797S (nM), Km ATP
[13] = Km ATP, read-out: IC50 L858R/C797S (nM), Km ATP
[14] = Km ATP, read-out: IC50 WT (nM), Km ATP

Row | Compound | IC50 [1, 6] [nM] | IC50 [1, 7] [nM] | IC50 [2, 8] [nM] | IC50 [2, 9] [nM] | IC50 [3, 10] [nM] | IC50 [4, 11] [nM] | IC50 ([5]; IC50 WT (nM), 100 μM ATP) [nM] | IC50 [3, 12] [nM] | IC50 [4, 13] [nM] | IC50 [5, 14] [nM] | IC50 ([1]; ATP at Km, read-out: IC50 Del19/T790M/C797S (nM), Km ATP) [nM] | IC50 ([1]; read-out: IC50 Del19/T790M/C797S (nM), 100 μM ATP) [nM] | IC50 ([2]; read-out: IC50 L858R/T790M/C797S (nM), 100 μM ATP) [nM] | IC50 ([3]; ATP at Km, read-out: IC50 Del19/C797S (nM), Km ATP) [nM] | IC50 ([3]; read-out: IC50 Del19/C797S (nM), 100 μM ATP) [nM] | IC50 ([4]; ATP at Km, read-out: IC50 L858R/C797S (nM), Km ATP) [nM] | IC50 ([4]; read-out: IC50 L858R/C797S (nM), 100 μM ATP) [nM] | IC50 ([5]; ATP at Km, read-out: IC50 WT (nM), Km ATP) [nM] | IC50 ([5]; read-out: IC50 WT (nM), 100 μM ATP) [nM]
1 | O=C(c1ccc(C#Cc2cnc(Nc3ccnc(-c4cnn(S(=O)(=O)C5CC5)c4)n3)cc2NC[C@H]2CC[C@H](CO)CC2)cc1)N1CCC(O)CC1 [Example 443, (4-((6-((2-(1-(Cyclopropylsulfonyl)-1H-pyrazol-4-yl)pyrimidin-4-yl)amino)-4-((((1 r,4r)-4-(hydroxymethyl)cyclohexyl)methyl)amino)pyridin-3-yl)ethynyl)phenyl)(4-hydroxypiperidin-1-yl)methanone] | 7.7 | 4.3 | 4 | 1.2 | 53.5 | 4610 | > 10000 |  |  |  |  |  |  |  |  |  |  |  | 
2 | O=C(c1ccc(C#Cc2cnc(Nc3ccnc(-c4cnn(S(=O)(=O)C5CC5)c4)n3)cc2N2CCC[C@@H](O)C2)cc1)N1CCC(O)CC1 [Example 444, (R)-(4-((6-((2-(1-(Cyclopropylsulfonyl)-1H-pyrazol-4-yl)pyrimidin-4-yl)amino)-4-(3-hydroxypiperidin-1-yl)pyridin-3-yl)ethynyl)phenyl)(4-hydroxypiperidin-1-yl)methanone] | 1.5 | 0.9 | 1.5 | 0.3 | 10.2 | 549 | > 10000 |  |  |  |  |  |  |  |  |  |  |  | 
3 | O=C(c1ccc(C#Cc2cnc(Nc3ccnc(-c4cnn(S(=O)(=O)C5CC5)c4)n3)cc2N2CCC[C@H](O)C2)cc1)N1CCC(O)CC1 [Example 445, (S)-(4-((6-((2-(1-(Cyclopropylsulfonyl)-1H-pyrazol-4-yl)pyrimidin-4-yl)amino)-4-(3-hydroxypiperidin-1-yl)pyridin-3-yl)ethynyl)phenyl)(4-hydroxypiperidin-1-yl)methanone] | 0.9 | 0.5 | 0.4 | 0.1 | 2 | 104 | > 10000 |  |  |  |  |  |  |  |  |  |  |  | 
4 | CC1(CO)CCN(c2cc(Nc3ccnc(-c4cnn(S(=O)(=O)C5CC5)c4)n3)ncc2C#Cc2ccc(C(=O)N3CCC(O)CC3)cc2)CC1 [Example 446, (4-((6-((2-(1-(Cyclopropylsulfonyl)-1H-pyrazol-4-yl)pyrimidin-4-yl)amino)-4-(4-(hydroxymethyl)-4-methylpiperidin-1-yl)pyridin-3-yl)ethynyl)phenyl)(4-hydroxypiperidin-1-yl)methanone] | 1.2 | 1 | 0.4 | 0.2 | 1.3 | 18.9 | 2670 |  |  |  |  |  |  |  |  |  |  |  | 
5 | C[C@]1(O)CCCN(c2cc(Nc3ccnc(-c4cnn(S(=O)(=O)C5CC5)c4)n3)ncc2C#Cc2cnn(CCF)c2)C1 [Example 447, (S)-1-(2-((2-(1-(Cyclopropylsulfonyl)-1H-pyrazol-4-yl)pyrimidin-4-yl)amino)-5-((1-(2-fluoroethyl)-1H-pyrazol-4-yl)ethynyl)pyridin-4-yl)-3-methylpiperidin-3-ol] | 0.4 | 0.3 | 0.5 | 0.2 | 2.1 | 59.8 | > 10000 | 1.5 | 3.5 | 16.9 |  |  |  |  |  |  |  |  | 
6 | C[C@]1(O)CCCN(c2cc(Nc3ccnc(-c4cnn(S(=O)(=O)C5CC5)c4)n3)ncc2C#Cc2cnn(C(F)(F)F)c2)C1 [Example 448, (S)-1-(2-((2-(1-(Cyclopropylsulfonyl)-1H-pyrazol-4-yl)pyrimidin-4-yl)amino)-5-((1-(trifluoromethyl)-1H-pyrazol-4-yl)ethynyl)pyridin-4-yl)-3-methylpiperidin-3-ol] | 1.7 | 1 | 6.1 | 1.2 | 44.7 | 503 | > 10000 | 27.7 | 5.8 | 300 |  |  |  |  |  |  |  |  | 
7 | CC1(CO)CCN(c2cc(Nc3ccnc(N4CCN(S(=O)(=O)C5CC5)CC4)n3)ncc2C#Cc2cnn(C(F)(F)F)c2)CC1 [Example 449, (1-(2-((2-(4-(Cyclopropylsulfonyl)piperazin-1-yl)pyrimidin-4-yl)amino)-5-((1-(trifluoromethyl)-1H-pyrazol-4-yl)ethynyl)pyridin-4-yl)-4-methylpiperidin-4-yl)methanol] |  | 165 |  | 51.7 |  |  |  | 268 | 69.3 | 564 |  |  |  |  |  |  |  |  | 
8 | (1-(2-((2-(1-(Cyclopropylsulfonyl)-1H-pyrazol-4-yl)pyrimidin-4-yl)amino)-5-((5-((3,3-difluoroazetidin-1-yl)methyl)-1-(2,2-difluoroethyl)-1H-pyrrol-3-yl)ethynyl)pyridin-4-yl)-4-methylpiperidin-4-yl)methanol [Example 248] |  |  |  |  |  |  |  |  |  |  | 8.3 | 13.8 | 11.4 | 9.9 | 8.6 | 16.6 | 39.4 | 30.1 | 6600
